For twelve compounds, IC50 results are on record in patent US20180148418A1, “AMIDO-SUBSTITUTED CYCLOHEXANE DERIVATIVES” (Bayer Pharma Aktiengesellschaft, priority 2015, published 2018).

One experiment deals with T1, TNKS2 (Homo sapiens, UniProt Q9H2K2).
T1 construct: purchased BPS Bioscience, San Diego, USA 80572 (TNKS2 Histone Ribosylation Assay Kit)
T1 sequence (Q9H2K2 1-1166): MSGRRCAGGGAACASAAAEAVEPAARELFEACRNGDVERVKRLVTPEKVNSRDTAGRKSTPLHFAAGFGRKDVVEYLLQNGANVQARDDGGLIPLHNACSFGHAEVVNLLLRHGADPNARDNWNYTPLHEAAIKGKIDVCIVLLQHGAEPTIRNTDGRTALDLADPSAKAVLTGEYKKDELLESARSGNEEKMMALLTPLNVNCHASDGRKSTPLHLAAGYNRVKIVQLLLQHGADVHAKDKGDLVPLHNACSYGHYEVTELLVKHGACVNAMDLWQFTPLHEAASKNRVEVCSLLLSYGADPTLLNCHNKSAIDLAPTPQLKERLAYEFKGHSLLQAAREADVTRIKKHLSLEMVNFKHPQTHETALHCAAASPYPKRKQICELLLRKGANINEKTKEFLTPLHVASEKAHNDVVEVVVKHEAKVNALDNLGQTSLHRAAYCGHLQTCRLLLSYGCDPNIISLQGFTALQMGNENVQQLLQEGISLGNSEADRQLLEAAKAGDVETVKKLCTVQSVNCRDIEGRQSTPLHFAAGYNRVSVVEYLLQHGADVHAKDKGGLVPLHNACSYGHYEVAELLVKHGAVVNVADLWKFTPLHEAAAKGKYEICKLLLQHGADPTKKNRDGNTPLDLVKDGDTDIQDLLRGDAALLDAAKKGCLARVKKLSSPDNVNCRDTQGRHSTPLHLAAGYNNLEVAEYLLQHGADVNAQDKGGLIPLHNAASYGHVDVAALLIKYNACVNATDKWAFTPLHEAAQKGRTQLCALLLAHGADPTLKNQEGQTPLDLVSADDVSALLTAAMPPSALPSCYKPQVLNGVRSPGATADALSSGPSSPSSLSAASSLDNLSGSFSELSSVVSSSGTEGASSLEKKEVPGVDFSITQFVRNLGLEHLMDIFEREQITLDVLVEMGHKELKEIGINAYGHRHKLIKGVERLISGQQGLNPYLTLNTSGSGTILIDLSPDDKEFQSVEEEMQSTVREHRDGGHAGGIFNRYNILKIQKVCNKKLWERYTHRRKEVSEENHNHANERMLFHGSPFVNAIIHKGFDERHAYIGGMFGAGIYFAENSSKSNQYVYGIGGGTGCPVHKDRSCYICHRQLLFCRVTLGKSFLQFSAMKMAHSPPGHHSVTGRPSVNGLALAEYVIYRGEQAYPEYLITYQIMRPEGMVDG
The experiment is described as follows: TNKS2 Assay B (auto-parsylation, [3H]-NAD+ SPA). The note with it: 6 nM TNKS2, auto-parsylation, over night at room temperature. Format: biochemical. Here is the method:
The potency of selected compounds according to the invention was assessed applying a modified in vitro inhibition assay. Here, the TNKS2 catalyzed NAD^+-dependent ribosylation of the enzyme itself (auto-parsylation) was detected using [^3H]-NAD^+ as substrate and applying the scintillation proximity assay (SPA) method to detect tritium-labeled, parsylated TNKS2. The intensity of the readout signal is proportional to the incorporated [^3H]-NAD^+. Inhibition of TNKS2 leads to a decreased incorporation of [^3H]-NAD^+ and consequently to a lower readout signal intensity. The concentration of a test compound which inhibits the enzyme activity by 50% (corresponds to half of the normed readout signal intensity) is reported as IC50.
Protocol Auto-Parsylation Assay
The assay was conducted in a 96 well MTP format with the identical TNKS2 enzyme sample and NAD^+ sample as in the histone ribosylation assay with the following modifications: TNKS2 enzyme sample was diluted with a modified assay buffer (50 mM MES pH 7.0, 1 mM DTT, 0.01% Triton X-100) to a final concentration of 6 nM TNKS2 and 10×NAD^+ solution was diluted with the modified assay buffer (s. above) to a final 0.445×NAD^+ solution doped with 100 Bq/μl [^3H]-NAD^+[Catalog #NET443H050UC, Perkin Elmer, Waltham, Mass., USA]. Substrate solution (10 μl) was incubated with different test compound concentrations (2.5 μl in 10% DMSO in modified assay buffer) or control (2.5 μl 10% DMSO in modified assay buffer only) and enzyme (10 μl) over night at room temperature. Incorporated tritium was measured after addition of 50 ul SPA beads (1 mg/ml) [Catalog #RPNQ0095 20 mg/ml, Perkin Elmer, Waltham, Mass., USA; diluted 1:10 with Dulbecco's phosphate buffered saline, PBS Catalog #D8537, Sigma-Aldrich, Steinheim, Germany] and detection of the photon emission with a beta count plate reader [Wallac MicroBeta®, Perkin Elmer, Waltham, Mass., USA].

The test system of experiment [1] is HEK293 cells cotransfected with the FOP control vector. The experiment is described as follows: HEK293 FOP assay (control reporter with non-functional TCF elements). It counts as cell-based. Conditions: Homo sapiens, 16 hours. Here is the method: In a parallel approach, HEK293 cells were cotransfected with the FOP control vector and pcDNA3. The FOP vector is identical to the TOP construct, but it contains instead of functional TCF elements a randomized, non-functional sequence. For this transfection a stable transfected cell line was generated as well, based on selection with Geneticin (1 mg/ml).
(§1) In preparation of the assay, the two cell lines were plated 24 h before beginning the test at 10000 cells per well in a 384 micro titre plate (MTP) in 30 μl growth medium. […] The recombinant human Wnt-3a was thereby applied between 2500 and 5 ng/ml in two-fold dilution steps.
(§2) Selective inhibitory activity for small molecules on the wildtype Wnt pathway was determined after parallel incubation of both (TOP and FOP) HEK293 reporter cell lines with a compound dilution series from 50 μM to 15 nM in steps of 3.16-fold dilutions in CAFTY buffer (130 mM sodium chloride, 5 mM potassium chloride, 20 mM HEPES, 1 mM magnesium chloride, 5 mM sodium bicarbonate, pH 7.4) containing 2 mM Ca^2+ and 0.01% BSA.
(§3) The compounds were thereby serially prediluted in 100% DMSO and thereafter 50 fold into the CAFTY compound dilution buffer (described above).

Experiment [2] has as its system wildtype Wnt signaling cascade. The experiment is described as follows: HEK293 TOP assay (Super TopFlash luciferase reporter, Wnt-3a stimulated). It counts as cell-based. The note with it: Homo sapiens, HEK293, 16 h, HEK293 TOP reporter cells, Wnt3a at EC50, 16 hours.
Text: 7.1 Measurement of the Inhibitory Activity of Selected Compounds on the Wildtype Wnt Signaling Cascade: HEK293 TOP/FOP Assay
In order to discover and characterize small molecules which inhibit the wildtype Wnt pathway, a cellular reporter assay was employed. The corresponding assay cell was generated by transfection of the mammalian cell line HEK293 (ATCC, #CRL-1573) with the Super TopFlash vector (Morin, Science 275, 1997, 1787-1790; Molenaar et al., Cell 86 (3), 1996, 391-399). The HEK293 cell line is cultivated at 37° C. and 5% CO2 in DMEM (Life Technologies, #41965-039), supplemented with 2 mM glutamine, 20 mM HEPES, 1.4 mM pyruvate, 0.15% Na-bicarbonate and 10% foetal bovine serum (GIBCO, #10270). Stable transfectants were generated by selection with 300 μg/ml Hygromycin.
as §1, §2, §3

On to `CC1C[C@]2(CC[C@@H](NC(=O)c3cnn4cccnc34)CC2)C(=O)N1c1ccc(F)cc1Cl` (mixture of isomers) [Example 355, N-[(trans)-2-(2-chloro-4-fluorophenyl)-3-methyl-1-oxo-2-azaspiro[4.5]dec-8-yl]pyrazolo[1,5-a]pyrimidine-3-carboxamide (mixture of isomers at C3)], for which the IC50 was 8.4 nM at TNKS2, at least 50000 nM in experiment [1] and 3.4 nM in experiment [2].
As to `Cc1c(C(C)N(C)C)cnc2c(C(=O)N[C@H]3CC[C@@]4(CCN(c5ccc(F)cc5Cl)C4=O)CC3)cnn12` (mixture of isomers) [Example 358, N-[(trans)-2-(2-chloro-4-fluorophenyl)-1-oxo-2-azaspiro[4.5]dec-8-yl]-6-[1-(dimethylamino)ethyl]-7-methylpyrazolo[1,5-a]pyrimidine-3-carboxamide (racemate)], the IC50 was 41 nM on TNKS2, at least 50000 nM in experiment [1] and 5.7 nM in experiment [2].
For `N#Cc1cc(F)cc(Cl)c1NC(=O)[C@H]1CC[C@H](NC(=O)c2cnn3cccnc23)CC1` [Example 152, N-{trans-4-[(2-chloro-6-cyano-4-fluorophenyl)carbamoyl]cyclohexyl}pyrazolo[1,5-a]pyrimidine-3-carboxamide], the values for the IC50 (on TNKS2; in experiment [1]; in experiment [2]) were 140 nM, at least 50000 nM and 91 nM, respectively.
With `Cc1cc(NC(=O)[C@H]2CC[C@H](NC(=O)c3cnn4cccnc34)CC2)c(Cl)cn1` [Example 153, N-{trans-4-[(5-chloro-2-methylpyridin-4-yl)carbamoyl]cyclohexyl}pyrazolo[1,5-a]pyrimidine-3-carboxamide], the half-maximal inhibitory concentration (IC50) against TNKS2 was 170 nM; in experiment [1], at least 50000 nM; in experiment [2], 530 nM.
In the case of `CCN(c1ccccc1Cl)C(=O)[C@H]1CC[C@H](NC(=O)c2[nH]cnc2C(=O)NC)CC1` [Example 158, N^5-{trans-4-[(2-chlorophenyl)(ethyl)carbamoyl]cyclohexyl}-N^4-methyl-1H-imidazole-4,5-dicarboxamide], the IC50 against TNKS2 is 150 nM; in experiment [1], at least 50000 nM; in experiment [2], 34 nM.
On the same counts, the results for `CNC(=O)c1nc[nH]c1C(=O)N[C@H]1CC[C@@]2(CCCN(c3ccc(F)cc3Cl)C2=O)CC1` [Example 159] are 130 nM, at least 50000 nM and 14 nM.
As to `CNC(=O)c1nc[nH]c1C(=O)N[C@H]1CC[C@H](C(=O)Nc2c(Cl)cc(F)cc2C#N)CC1` [Example 174, N^5-{trans-4-[(2-chloro-6-cyano-4-fluorophenyl)carbamoyl]cyclohexyl}-N^4-methyl-1H-imidazole-4,5-dicarboxamide], the IC50 against TNKS2 is 240 nM; in experiment [1] it was at least 50000 nM; in experiment [2] it was 79 nM.
Regarding `COC1CN(C(=O)c2nc[nH]c2C(=O)N[C@H]2CC[C@@]3(CCN(c4ccc(F)cc4Cl)C3=O)CC2)C1` [Example 188, N-[(trans)-2-(2-chloro-4-fluorophenyl)-1-oxo-2-azaspiro[4.5]dec-8-yl]-4-[(3-methoxyazetidin-1-yl)carbonyl]-1H-imidazole-5-carboxamide], the IC50 against TNKS2 is 2.7 nM; in experiment [1] it was at least 50000 nM; in experiment [2], 0.68 nM.
On the same counts, the results for `O=C(N[C@H]1CC[C@@]2(CCN(c3ccc(F)cc3Cl)C2=O)CC1)c1[nH]cnc1C(=O)N1CC(F)(F)C1` [Example 189, N-[(trans)-2-(2-chloro-4-fluorophenyl)-1-oxo-2-azaspiro[4.5]dec-8-yl]-4-[(3,3-difluoroazetidin-1-yl)carbonyl]-1H-imidazole-5-carboxamide] are 5.6 nM, 9800 nM and 0.3 nM.
Consider `O=C(N[C@H]1CC[C@@]2(CCN(c3ccc(F)cc3Cl)C2=O)CC1)c1[nH]cnc1C(=O)N1CC(C(F)F)C1` [Example 190, N-[(trans)-2-(2-chloro-4-fluorophenyl)-1-oxo-2-azaspiro[4.5]dec-8-yl]-4-{[3-(difluoromethyl)azetidin-1-yl]carbonyl}-1H-imidazole-5-carboxamide], for which the IC50 against TNKS2 turned out to be 2.8 nM; in experiment [1], 12000 nM; in experiment [2] it was 0.06 nM.
As for `O=C(N[C@H]1CC[C@@]2(CCN(c3ccc(F)cc3Cl)C2=O)CC1)c1[nH]cnc1C(=O)N1CC(O)C1` [Example 192, N-[(trans)-2-(2-chloro-4-fluorophenyl)-1-oxo-2-azaspiro[4.5]dec-8-yl]-4-[(3-hydroxyazetidin-1-yl)carbonyl]-1H-imidazole-5-carboxamide], the IC50 against TNKS2 was 5.3 nM; in experiment [1], at least 50000 nM; in experiment [2], 0.21 nM.
On the same counts, the results for `O=C(N[C@H]1CC[C@@]2(CCN(c3ccc(F)cc3Cl)C2=O)CC1)c1[nH]cnc1C(=O)N1CC(OC(F)F)C1` [Example 193, N-[(trans)-2-(2-chloro-4-fluorophenyl)-1-oxo-2-azaspiro[4.5]dec-8-yl]-4-{[3-(difluoromethoxy)azetidin-1-yl]carbonyl}-1H-imidazole-5-carboxamide] are 5 nM, 16000 nM and 0.6 nM.
